AC50 data for 73 molecules are collected here from PubChem BioAssay AID1259332 (Broad Institute, 2017).

The source made the active and inactive calls. The rule behind the calls is not given here.

The assay has as its system B cell line, CD40 signaling inhibition reporter. The assay can be described thus: CD40 pathway inhibition in B cells – B cell lineage, dose response (AID 1259332).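 Note: cells stimulated with CD40 ligand tCD40L.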

`O=C(NC(=S)/C(=C1\CCCCCN1)[N+](=O)[O-])c1ccccc1`: the AC50 was 3.07 µM. For `C=C1C(=O)C23C(O)C1CCC2C12CCCC(C)(COC(C)=O)C1C(O)C3(O)OC2` (stereo not drawn) the value was 0.567 µM; for `CC(C)OC(=O)c1cn(Cc2c(F)cccc2F)c2sc(-c3ccc(NC(=O)C(C)C)cc3)c(CN(C)Cc3ccccc3)c2c1=O`, > 20 µM (inactive); for `CN1C(=O)/C(=N\OC(=O)c2cccc3ccccc23)c2ccccc21`, 1.21 µM. For `C[C@H]1CN([C@@H](C)CO)C(=O)c2cccc(NC(=O)Nc3ccc(F)cc3)c2O[C@H]1CN(C)S(=O)(=O)c1ccc(Cl)cc1` the value was 4.87 µM; for `COc1ccc(S(=O)(=O)Nc2ccc3c(c2)C(=O)N([C@H](C)CO)C[C@@H](C)[C@@H](CN(C)Cc2ccc(C(F)(F)F)cc2)OCCCC[C@H](C)O3)cc1`, 6.77 µM. Regarding `CCOc1ncccc1C(=O)OC(C)C(=O)Nc1ccc(Cl)cn1` (stereo not drawn), the AC50 was 10.1 µM. As to `CN(C)C(=S)SSC(=S)N(C)C`, the AC50 was 0.152 µM. For `C[C@H]1CN([C@@H](C)CO)C(=O)c2c(c3ccccc3n2C)-c2ccccc2CO[C@H]1CN(C)C(=O)Nc1ccccc1C(F)(F)F` the value was > 20 µM (inactive); for `C[C@H]1CN([C@@H](C)CO)C(=O)c2c(c3ccccc3n2C)-c2ccccc2CO[C@H]1CN(C)C(=O)Nc1cccc(C(F)(F)F)c1`, 8.34 µM; for `N#C[C@@H]1[C@H](c2ccc(C#CC3CCCCC3)cc2)[C@H](CO)N1C(=O)Nc1ccc(F)cc1`, > 20 µM (inactive). The result for `O=C(Nc1ccccc1)N1CC(=O)N2[C@H](CO)[C@@H](c3ccc(C#CC4CCCCC4)cc3)[C@H]2C1` reads 11 µM; that for `CC1CCCC=CC2CC(OC(=O)CN(C)C)CC2C(O)C=CC(=O)O1` (stereo not drawn), 1.77 µM. Regarding `COc1ccc(CC2C(=O)NC(C)C(=O)N(C)C3Cc4ccc(cc4)Oc4cc(ccc4O)CC(C(=O)NC(C)C(=O)NC(C)C(=O)N2C)N(C)C3=O)cc1` (stereo not drawn), the AC50 is 0.00631 µM. On to `Cc1noc(C)c1S(=O)(=O)N(C)C[C@H]1OCc2ccccc2-c2c(n(C)c3ccccc23)C(=O)N([C@@H](C)CO)C[C@H]1C`, for which the AC50 is 11.2 µM. The result for `O=C1CC(=O)OC(c2ccc([N+](=O)[O-])cc2)O1` reads 0.629 µM. As for `COc1c(-c2coc3cc4c(cc3c2=O)CC(O)C(C)(C)O4)ccc2c1C=CC(C)(C)O2` (stereo not drawn), the AC50 was > 20 µM (inactive).

For `C[C@@H]1CN([C@@H](C)CO)C(=O)c2c(c3ccccc3n2C)-c2ccccc2CO[C@@H]1CN(C)C(=O)c1cc(Cl)cc(Cl)c1`, the AC50 is > 20 µM (inactive). `CS(=O)(=O)c1ccc(C(=O)OCC(=O)NC(=O)C2CCCCC2)cc1[N+](=O)[O-]`: the AC50 is > 20 µM (inactive). With `C[C@@H]1CN([C@H](C)CO)C(=O)c2cc(NC(=O)Nc3cccc4ccccc34)ccc2O[C@@H](C)CCCCO[C@H]1CN(C)Cc1ccc(C(F)(F)F)cc1`, the AC50 was 1.91 µM.

Turning to `C[C@H]1CN([C@@H](C)CO)C(=O)c2ccccc2-c2ccccc2CO[C@@H]1CN(C)Cc1ccccc1C(F)(F)F`, the AC50 was 7.28 µM. On to `CC(C)CCCCCCCCCCCCC(=O)NCC(=O)NC1C(O)C(O)C(Nc2ncnc3nc[nH]c23)OC1C(O)CO` (stereo not drawn), for which the AC50 is 0.0128 µM. The result for `CC(C)(C)CC(C)(C)c1ccc(O)c(Cc2ccc(Cl)cc2Cl)c1` reads 7.11 µM; that for `C1CCC(C(CC2CCCCN2)C2CCCCC2)CC1` (stereo not drawn), 2.39 µM; that for `COc1cc2c(cc1OC)C(=O)C(Br)CC2` (stereo not drawn), 3.76 µM. For `COc1ccc(C(=O)O/N=C2\C(=O)N(C)c3ccccc32)cc1` the value was 1.84 µM; for `c1ccc(-c2nc(-c3ccccn3)no2)cc1`, 3.98 µM; for `COc1ccc2c3c([nH]c2c1)[C@H](CO)N(C(=O)Nc1ccc(F)cc1)CC31CN(Cc2cc(F)ccc2F)C1`, > 20 µM (inactive). Consider `O=C(C[C@@H]1CC[C@@H]2[C@H](COC[C@H](O)CN2Cc2cc(F)ccc2F)O1)NCc1ccc(Oc2ccccc2)cc1`, for which the AC50 was 6.77 µM. Consider `C[C@@H]1CN([C@@H](C)CO)C(=O)c2c(c3ccccc3n2C)-c2ccccc2CO[C@H]1CN(C)C(=O)Nc1cccc(C(F)(F)F)c1`, for which the AC50 was 9.25 µM.

On to `C[C@H]1O[C@@H](O[C@H]2[C@@H](O)C[C@H](O[C@H]3[C@@H](O)C[C@H](O[C@H]4CC[C@]5(C)C6CC[C@]7(C)[C@@H](C8=CC(=O)OC8)CC[C@]7(O)C6CC[C@@H]5C4)O[C@@H]3C)O[C@@H]2C)C[C@H](O)[C@@H]1O` (stereo partly drawn), for which the AC50 is 0.929 µM.

On to `CC[N+]1(C)CCC(O)(c2ccc(OC)cc2)C(C(=O)c2ccc(OC)cc2)C1` (stereo not drawn), for which the AC50 is 3.75 µM. Take `Cc1ccc(S(=O)(=O)N[C@@H](Cc2ccccc2)C(=O)CCl)cc1`: the AC50 is 2.99 µM. With `CCCn1c(NC(=O)c2cccc(S(=O)(=O)N3CCCC3)c2)nc2ccccc21`, the half-maximal activity concentration (AC50) is 2.02 µM. For `C[C@@H]1CCCCO[C@H](CN(C)Cc2ccc(C(F)(F)F)cc2)[C@@H](C)CN([C@@H](C)CO)C(=O)c2cc(NC(=O)Nc3cccc4ccccc34)ccc2O1`, the AC50 is > 20 µM (inactive). Regarding `O=C(C1CCC1)N1CCc2cc(S(=O)(=O)N3CCCCC3)ccc21`, the AC50 was > 20 µM (inactive). Consider `O=C(OC1CCOC1=O)c1ccccc1C(=O)c1ccc(Cl)c([N+](=O)[O-])c1` (stereo not drawn), for which the AC50 was > 20 µM (inactive). Turning to `COc1cccc(S(=O)(=O)N(C)C[C@@H]2OCc3ccccc3-c3c(n(C)c4ccccc34)C(=O)N([C@H](C)CO)C[C@H]2C)c1`, the AC50 was > 20 µM (inactive). In the case of `CC1(C)C(=O)C=C[C@@]2(C)C1C=C[C@]1(C)C2CC[C@@]2(C)[C@H](c3ccoc3)OC(=O)[C@H]3O[C@]321` (stereo partly drawn), the AC50 is 5.24 µM. For `C[C@@H]1CN([C@H](C)CO)C(=O)c2ccccc2-c2ccccc2CO[C@@H]1CN(C)Cc1ccccc1C(F)(F)F` the value was 9.99 µM; for `CC(=O)OC1C(=O)OCC23CCC4(C)OC4C2OC2CC(OC(=O)C=CC=CC(=O)OCCC1C)C3(C)C21CO1` (stereo not drawn), 0.0056 µM; for `CC1CC(C)C(=O)C(C(CC2CC(=O)NC(=O)C2)OC(=O)CC(=O)c2ccccc2)C1` (stereo not drawn), 3.18 µM. On to `NC(=NCCCCCCN=C(N)/N=C(\N)Nc1ccc(Cl)cc1)/N=C(\N)Nc1ccc(Cl)cc1`, for which the AC50 is > 20 µM (inactive). Consider `C[C@@H]1O[C@@H](O[C@H]2C[C@@H](O)[C@]3(CO)C4C(CC[C@]3(O)C2)[C@@]2(O)CC[C@H](C3=CC(=O)OC3)[C@@]2(C)C[C@H]4O)[C@H](O)[C@H](O)[C@H]1O` (stereo partly drawn), for which the AC50 was 0.294 µM. For `Cc1ccc(S(=O)(=O)CCC(=O)N(CCCN2CCOCC2)c2nc3ccccc3s2)cc1` the value was 8.01 µM. As for `CCS(=O)(=O)N1Cc2ccccc2CC1C(=O)Nc1nc2ccccc2s1` (stereo not drawn), the AC50 is 10.9 µM.

For the molecule `O=c1cc(-c2ccc(O)cc2)oc2ccc3ccccc3c12`, the concentration at half-maximal activity (AC50) is 2.2 µM.

As for `CC1CC(C)CC(C)C(O)C(C#N)=CC=CCC(C2CCCC2C(=O)O)OC(=O)CC(O)C(C)C1` (stereo not drawn), the AC50 was less than 0.0005 µM. For `Cc1cc(C)cc(N2C(=O)CC(Sc3nnnn3-c3ccccc3)C2=O)c1` (stereo not drawn), the AC50 is 0.675 µM. For `C[C@@H]1CN([C@@H](C)CO)C(=O)c2c(c3ccccc3n2C)-c2ccccc2CO[C@H]1CN(C)Cc1ccccc1` the value was 8.22 µM; for `CC(=O)O[C@@H]1C[C@@]2(C)[C@H](c3ccoc3)C[C@H]3O[C@]32[C@]2(C)C(=O)C(=O)C3C(C)(C)C(=O)C=C[C@]3(C)C12` (stereo partly drawn), 1.22 µM.

On to `CCC(C)[C@H]1O[C@]2(CC[C@@H]1C)C[C@@H]1C[C@@H](C/C=C(\C)[C@@H](OC3C[C@H](OC)C(O[C@H]4C[C@H](OC)[C@@H](O)[C@H](C)O4)[C@H](C)O3)[C@@H](C)/C=C/C=C3\CO[C@@H]4[C@H](O)C(C)=C[C@@H](C(=O)O1)[C@]34O)O2` (stereo partly drawn), for which the AC50 is > 20 µM (inactive). As for `Cc1ccccc1C(=O)N1CCC(C(=O)Nc2nc3ccc(F)cc3s2)CC1`, the AC50 is 8.19 µM.

As for `CC=Cc1cc2c(c(=O)o1)C(=O)C(O)C(C)O2` (stereo not drawn), the AC50 was > 20 µM (inactive). For `Cc1cnc(NC(=O)c2ccc(OCC3CCCO3)cc2)s1` (stereo not drawn) the value was 3.03 µM.

For the molecule `C[C@H]1CN([C@@H](C)CO)C(=O)c2c(c3ccccc3n2C)-c2ccccc2CO[C@@H]1CN(C)C(=O)Nc1cccc(C(F)(F)F)c1`, the AC50 was 11.1 µM. For `CC12CCC3C(CCC4(O)CC(O)CCC34C=NO)C1(O)CCC2C1=COC(=O)C1` (stereo not drawn) the value was 0.586 µM; for `C[C@@H]1CN([C@@H](C)CO)C(=O)c2c(c3ccccc3n2C)-c2ccccc2CO[C@@H]1CN(C)C(=O)Nc1ccccc1C(F)(F)F`, 9.94 µM; for `N#C[C@@H]1[C@@H](c2ccc(C#CC3CCCCC3)cc2)[C@H](CO)N1C(=O)Nc1ccc(F)cc1`, 6.51 µM.

Consider `N#Cc1cccc(-c2ccc(C3[C@@H]4CN(C(=O)Nc5ccc(C(F)(F)F)cc5)C[C@H]3N4)cc2)c1` (stereo partly drawn), for which the AC50 was 8.9 µM. For `COC(=O)C1=C(C(=O)OC)C(C(=O)OC)C(C(=O)OC)C(C(=O)OC)(C(=O)OC)C(C(=O)OC)=C1C(=O)OC` (stereo not drawn), the AC50 is 3.44 µM. The result for `COc1ccc(S(=O)(=O)Nc2ccc3c(c2)C(=O)N([C@H](C)CO)C[C@@H](C)[C@@H](CN(C)Cc2ccc(C(F)(F)F)cc2)OCCCC[C@@H](C)O3)cc1` reads 8.69 µM. The result for `C[C@H](CO)N1C[C@H](C)[C@@H](CN(C)Cc2ccc(Oc3ccccc3)cc2)Oc2c(NC(=O)CCC(F)(F)F)cccc2C1=O` reads 8.77 µM; that for `COc1ccccc1NC(c1cccnc1)c1ccc2cccnc2c1O` (stereo not drawn), 8.25 µM; that for `CC1=C(SCCO)C(=O)c2ccccc2C1=O`, 2.6 µM.

For `CCCNC(=O)N1[C@H](C#N)[C@H](c2ccc(C3=CCCCC3)cc2)[C@@H]1CO`, the AC50 was > 20 µM (inactive). Regarding `CC1Cc2ccccc2N1c1ncnc(N)c1[N+](=O)[O-]` (stereo not drawn), the AC50 was 7.92 µM. Regarding `CN(C)c1ccc(C=c2c3cc(O)ccc3n3c2cc(-c2ccccc2)[n+]3C)cc1`, the AC50 was 3.43 µM.

Consider `N#C[C@@H]1[C@H](c2ccc(C#CC3CCCCC3)cc2)[C@@H](CO)N1S(=O)(=O)c1ccccc1`, for which the AC50 is 2.28 µM. For `CC(C)(C)CC(C)(C)c1ccc(OCCOCC[N+](C)(C)Cc2ccccc2)cc1` the value was 1.62 µM. For the molecule `Cc1nc(C)c(C(=O)Nc2ncc([N+](=O)[O-])s2)o1`, the AC50 is 9.08 µM. For `C=C1C(=O)OC2CC1C(O)CC(C)=CCCC(C)=CC(O)CC2C` (stereo not drawn) the value was 6 µM; for `CC(=O)OCC(=O)C1(O)CCC2C3CCC4=CC(=O)CCC4(C)C3(Cl)C(O)CC21C` (stereo not drawn), > 20 µM (inactive).

What is called AC50 is the concentration at which the activity in the assay is half-maximal.
